Reference: patent US20230181580A1, “TREATMENT OF PROLIFERATIVE DISEASES OF THE CNS” (AUCENTRA THERAPEUTICS PTY LTD, priority 2020, published 2023)
pKi: −log10 of the molar value.

What was measured:
MV4-11 = test: Resazurin proliferation assay, leukaemia cell line; assay type: cell-based; conditions: Homo sapiens, 72 h, read-out: Antiproliferative activity GI50 MV4-11
Excerpt: (§1) Representative compounds from Example 1, were subjected to standard MTT (3-(4,5-dimethylthiazol-2-yl)-2,5-diphenyltetrazolium bromide) and resazurin assays on solid tumour cell lines (including GBM cell lines) and leukemia cell lines, respectively, as previously reported (Wang S et al., J Med Chem 47:1662-1675, 2004; and Diab S. et al. CheMedChem 9:962-972, 2014).

MB453 = test: MTT proliferation assay, breast; assay type: cell-based; conditions: 72 h, read-out: Antiproliferative activity GI50 MB453
Excerpt: as §1

CDK6/D3 = CDK6/D3 (Homo sapiens, UniProt Q00534); test: CDK kinase inhibition assay (radiometric / ADP Glo); assay type: biochemical
CDK6/D3, sequence (Q00534 whole entry): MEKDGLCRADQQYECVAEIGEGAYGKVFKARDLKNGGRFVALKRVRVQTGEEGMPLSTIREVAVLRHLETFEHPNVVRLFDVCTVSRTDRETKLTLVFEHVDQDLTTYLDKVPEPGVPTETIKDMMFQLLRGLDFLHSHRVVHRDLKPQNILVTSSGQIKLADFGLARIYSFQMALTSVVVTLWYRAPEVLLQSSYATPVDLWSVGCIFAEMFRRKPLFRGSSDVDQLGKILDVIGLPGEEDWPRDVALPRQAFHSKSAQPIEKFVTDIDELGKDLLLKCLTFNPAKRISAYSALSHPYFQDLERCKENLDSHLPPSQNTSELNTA
CDK6/D3, sequence (P30281 whole entry partner): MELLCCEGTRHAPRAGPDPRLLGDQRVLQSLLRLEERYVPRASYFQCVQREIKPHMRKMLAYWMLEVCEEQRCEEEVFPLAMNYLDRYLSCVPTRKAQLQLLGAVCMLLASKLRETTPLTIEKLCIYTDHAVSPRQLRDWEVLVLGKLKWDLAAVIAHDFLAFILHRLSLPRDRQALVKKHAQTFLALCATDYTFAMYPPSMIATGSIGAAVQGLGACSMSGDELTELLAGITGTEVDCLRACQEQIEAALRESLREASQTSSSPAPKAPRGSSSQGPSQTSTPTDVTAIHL
Procedure: (§2) Eurofins Pharma Discovery or Reaction Biology Corporation Kinase Profiler services were used to measure inhibition of CDKs and other kinases by radiometric assay (RIA). Inhibition of CDK4/Cyclin D1, CDK6/Cyclin D3 and CDK9/T1 were also determined in-house using ADP Glo Kinase assays (Promega Corporation, Madison Wis., United States of America). Briefly, the kinase reaction for CDK4/Cyclin D1 and CDK6/Cyclin D3 was performed with kinase reaction buffer ([…] Tris base pH 7.5, 20 mM MgCl2, 0.4 mM DTT), 0.1 mg/ml BSA and RB-CTF substrate (retinoblastoma protein1 C-terminal fraction). For CDK9/CyclinT1, the kinase reaction was performed with standard assay buffer and Kinase Dilution Buffer and RBER-IRStide substrate. Serial dilutions of 1:3 were prepared for test compounds for 10 concentrations (from 10 μM to 0.5 nM). The kinase reactions were started by addition of ATP, incubated for 40 min at 37° C. and then stopped by adding 10 μL of ADP Glo reagent. After incubation at room temperature (RT) in the dark for 40 min, 20 μL of kinase detection reagent was added per well and incubated for 40 min. Luminescence was measured using an EnVision Multilabel plate reader (PerkinElmer, Buckinghamshire, United Kingdom). Positive and negative controls were performed in the presence and absence of CDK kinases, respectively. Half-maximal inhibition (IC50) values were calculated using a 4-parameter logistic non-linear regression model with Graphpad prism (Version 6.0). Apparent inhibition constants (Ki) values were calculated from Km (ATP) and IC50 values for the respective kinases.

CDK2/A = CDK2/A (Homo sapiens, UniProt P24941); test: as above; assay type: biochemical
Procedure: as §2

CDK9/T1 = CDK9/T1 (Homo sapiens, UniProt P50750); test: as above; assay type: biochemical
CDK9/T1, sequence (P50750 whole entry): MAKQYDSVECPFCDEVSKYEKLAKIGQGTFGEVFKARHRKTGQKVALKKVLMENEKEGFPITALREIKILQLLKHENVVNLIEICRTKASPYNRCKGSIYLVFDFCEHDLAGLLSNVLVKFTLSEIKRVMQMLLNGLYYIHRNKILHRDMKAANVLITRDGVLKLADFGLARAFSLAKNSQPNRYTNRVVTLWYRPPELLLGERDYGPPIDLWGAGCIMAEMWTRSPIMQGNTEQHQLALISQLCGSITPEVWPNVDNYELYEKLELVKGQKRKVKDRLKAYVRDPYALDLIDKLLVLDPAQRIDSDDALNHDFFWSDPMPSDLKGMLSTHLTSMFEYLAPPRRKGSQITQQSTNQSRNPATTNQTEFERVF
CDK9/T1, sequence (O60563 whole entry partner): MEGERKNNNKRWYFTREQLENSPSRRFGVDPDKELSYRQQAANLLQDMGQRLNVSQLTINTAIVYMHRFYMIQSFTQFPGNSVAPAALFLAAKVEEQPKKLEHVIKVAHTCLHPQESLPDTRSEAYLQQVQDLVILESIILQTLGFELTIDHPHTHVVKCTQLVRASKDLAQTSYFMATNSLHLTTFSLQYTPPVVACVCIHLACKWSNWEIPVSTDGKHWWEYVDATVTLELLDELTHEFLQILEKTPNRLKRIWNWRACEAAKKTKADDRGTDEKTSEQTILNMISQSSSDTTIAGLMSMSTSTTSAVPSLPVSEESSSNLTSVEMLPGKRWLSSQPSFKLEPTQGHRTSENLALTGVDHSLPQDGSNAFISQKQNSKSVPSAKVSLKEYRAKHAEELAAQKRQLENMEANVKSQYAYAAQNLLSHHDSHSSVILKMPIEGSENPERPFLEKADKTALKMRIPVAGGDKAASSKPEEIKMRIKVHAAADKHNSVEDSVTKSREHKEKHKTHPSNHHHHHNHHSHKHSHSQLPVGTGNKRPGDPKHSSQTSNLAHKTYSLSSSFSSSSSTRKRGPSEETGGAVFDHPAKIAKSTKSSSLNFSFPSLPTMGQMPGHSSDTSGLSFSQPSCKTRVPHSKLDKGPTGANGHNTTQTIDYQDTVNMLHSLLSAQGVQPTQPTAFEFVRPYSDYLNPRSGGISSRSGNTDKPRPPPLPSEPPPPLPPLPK
Procedure: as §2

CDK4/D1 = CDK4/D1 (Homo sapiens, UniProt P11802); test: as above; assay type: biochemical
CDK4/D1, sequence (P11802 whole entry): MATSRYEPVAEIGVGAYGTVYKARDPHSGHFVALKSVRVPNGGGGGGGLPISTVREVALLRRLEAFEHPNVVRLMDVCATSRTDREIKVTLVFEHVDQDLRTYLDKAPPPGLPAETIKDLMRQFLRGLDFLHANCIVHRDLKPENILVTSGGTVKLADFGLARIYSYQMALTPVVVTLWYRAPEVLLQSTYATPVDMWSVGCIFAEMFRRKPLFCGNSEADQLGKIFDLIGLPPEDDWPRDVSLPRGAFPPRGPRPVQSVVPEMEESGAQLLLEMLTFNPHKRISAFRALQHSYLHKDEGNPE
CDK4/D1, sequence (P24385 whole entry partner): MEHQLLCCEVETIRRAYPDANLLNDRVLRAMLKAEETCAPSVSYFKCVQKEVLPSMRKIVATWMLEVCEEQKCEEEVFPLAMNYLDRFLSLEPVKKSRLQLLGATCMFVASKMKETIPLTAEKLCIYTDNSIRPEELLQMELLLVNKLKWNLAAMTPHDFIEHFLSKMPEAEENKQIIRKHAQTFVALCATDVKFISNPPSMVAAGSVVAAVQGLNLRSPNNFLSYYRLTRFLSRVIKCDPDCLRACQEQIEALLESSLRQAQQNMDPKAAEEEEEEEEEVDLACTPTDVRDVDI
Procedure: as §2

CDK1/B = CDK1/B (Homo sapiens, UniProt P06493); test: as above; assay type: biochemical
CDK1/B, sequence (P06493 whole entry): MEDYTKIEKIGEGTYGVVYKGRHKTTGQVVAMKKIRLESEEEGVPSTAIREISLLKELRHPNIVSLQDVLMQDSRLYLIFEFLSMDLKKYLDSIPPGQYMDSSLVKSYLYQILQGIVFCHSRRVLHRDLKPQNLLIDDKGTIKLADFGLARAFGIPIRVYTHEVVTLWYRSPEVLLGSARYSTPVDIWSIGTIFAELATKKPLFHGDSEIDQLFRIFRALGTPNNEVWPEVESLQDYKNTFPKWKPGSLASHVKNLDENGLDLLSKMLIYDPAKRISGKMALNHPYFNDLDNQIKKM
CDK1/B, sequence (P14635 whole entry partner): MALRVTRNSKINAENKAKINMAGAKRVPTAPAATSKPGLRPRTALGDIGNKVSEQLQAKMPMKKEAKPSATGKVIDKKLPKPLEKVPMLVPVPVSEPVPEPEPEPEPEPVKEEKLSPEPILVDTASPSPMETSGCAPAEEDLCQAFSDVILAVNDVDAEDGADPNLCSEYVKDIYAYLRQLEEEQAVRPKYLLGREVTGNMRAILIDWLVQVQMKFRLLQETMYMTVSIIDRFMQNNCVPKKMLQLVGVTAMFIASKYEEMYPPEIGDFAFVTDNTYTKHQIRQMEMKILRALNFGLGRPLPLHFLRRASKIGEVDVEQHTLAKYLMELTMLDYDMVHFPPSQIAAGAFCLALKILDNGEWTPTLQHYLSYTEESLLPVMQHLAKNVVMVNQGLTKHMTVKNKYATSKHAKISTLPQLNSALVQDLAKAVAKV
Procedure: as §2

CDK7/H = CDK7/H (Homo sapiens, UniProt P50613); test: as above; assay type: biochemical
CDK7/H, sequence (P50613 whole entry): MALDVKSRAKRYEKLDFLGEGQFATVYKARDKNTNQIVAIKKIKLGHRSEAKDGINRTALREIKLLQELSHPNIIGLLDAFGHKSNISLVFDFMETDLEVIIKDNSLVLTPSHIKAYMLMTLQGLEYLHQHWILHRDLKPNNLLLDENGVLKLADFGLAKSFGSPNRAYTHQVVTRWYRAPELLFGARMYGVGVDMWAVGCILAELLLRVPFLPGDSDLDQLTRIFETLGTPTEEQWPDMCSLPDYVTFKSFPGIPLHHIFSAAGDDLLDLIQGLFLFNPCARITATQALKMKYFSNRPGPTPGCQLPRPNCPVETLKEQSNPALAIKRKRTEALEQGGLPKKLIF
CDK7/H, sequence (P51946 whole entry partner): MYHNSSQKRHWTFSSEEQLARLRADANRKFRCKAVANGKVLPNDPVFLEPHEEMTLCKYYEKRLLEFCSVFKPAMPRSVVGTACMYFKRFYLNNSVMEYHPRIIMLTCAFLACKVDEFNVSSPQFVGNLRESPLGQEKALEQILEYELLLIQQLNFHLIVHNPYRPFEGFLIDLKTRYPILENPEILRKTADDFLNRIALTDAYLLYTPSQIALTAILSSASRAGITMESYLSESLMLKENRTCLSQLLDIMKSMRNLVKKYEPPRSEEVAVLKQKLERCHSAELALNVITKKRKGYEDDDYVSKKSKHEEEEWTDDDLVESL
CDK7/H, sequence (P51948 whole entry partner): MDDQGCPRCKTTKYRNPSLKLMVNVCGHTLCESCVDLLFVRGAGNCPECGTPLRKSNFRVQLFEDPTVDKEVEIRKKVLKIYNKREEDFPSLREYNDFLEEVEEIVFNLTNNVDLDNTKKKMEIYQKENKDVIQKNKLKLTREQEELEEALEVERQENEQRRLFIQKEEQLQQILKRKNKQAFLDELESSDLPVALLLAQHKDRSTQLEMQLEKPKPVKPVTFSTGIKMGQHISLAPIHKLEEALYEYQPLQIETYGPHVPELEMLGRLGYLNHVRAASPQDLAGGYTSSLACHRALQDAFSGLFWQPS
Procedure: as §2

Colo205 = test: MTT proliferation assay, colorectal; assay type: cell-based; conditions: Homo sapiens, COLO 205, 72 h, read-out: Antiproliferative activity GI50 Colo205
Excerpt: as §1

U87 xenografted mice = test: Subcutaneous U87 xenograft, compound 2 and TMZ study; assay type: in vivo; conditions: 25 mg/kg PO daily, single agent and with TMZ
Excerpt: (§3) Compound 1 and compound 2 were also investigated for in vivo antitumour activity in subcutaneous xenograft models. Briefly, U87 GBM cells were harvested and resuspended in a 1:1 mixture of serum-free media and matrigel, and 5×10^6 cells injected subcutaneously into the rear flank of 5-6-week-old CD1 nu/nu female mice. When the mean tumour volume reached 150-200 mm^3, animals were randomised to treatment groups (n=10 per group) and treated orally with vehicle (0.5% carboxymethyl cellulose in water), compound 1 or compound 2 daily for 21 days with the doses shown in FIGS. 5A and 5B. Mice were observed daily for signs of toxicity and weight loss, and tumour volume measured every other day.
In another study, U87 xenografted mice (n=8 per group) were treated with: (1) vehicle, (2) compound 2 (25 mg/kg, PO, daily), (3 and 4) TMZ (5 mg/kg or 50 mg/kg, PO, 5 day/week), (5) pre-treatment with compound 2 (25 mg/kg, PO, daily ×10), followed by TMZ (5 mg/kg, PO, 5 day/week ×2), (6) pre-treatment with TMZ (5 mg/kg, PO, 5 day/week ×2) followed by compound 2 (25 mg/kg, PO, daily ×10), and (7) co-treatment with compound 2 and TMZ, respectively. All treatment groups were completed by day 21, which were followed by a 7-day drug holiday before the second cycle of treatment started from day 29 (FIG. 5B).

U87 GBM cells [1] = test: Orthotopic U87 GBM xenograft; assay type: in vivo, NSG mice
Procedure: In vivo anti-tumour efficacy of compound 1 and compound 2 was also investigated in GBM orthotopic mouse xenograft models. For example, compound 2 was administered orally once daily for 21 days to NSG mice (n=8) (The Jackson Laboratory, Ben Harbor, Me., United States of America) orthotopically engrafted with the U87 GBM cells per each treatment cohort. TMZ was given orally once daily for 5 days and was used as a positive control. The disease burden was measured by a non-invasive bioluminescent whole-body imaging technique.

U87 GBM cells [2] = test: Subcutaneous U87 GBM xenograft, single agents; assay type: in vivo
Excerpt: as §3

LNCap = test: MTT proliferation assay, prostate; assay type: cell-based; conditions: Homo sapiens, 72 h, read-out: Antiproliferative activity GI50 LNCap
Excerpt: as §1

A2780 = test: MTT proliferation assay, ovarian; assay type: cell-based; conditions: Homo sapiens, 72 h, read-out: Antiproliferative activity GI50 A2780
Excerpt: as §1

PANC1 = test: MTT proliferation assay, pancreas; assay type: cell-based; conditions: Homo sapiens, PANC-1, 72 h, read-out: Antiproliferative activity GI50 PANC1
Excerpt: as §1

U87 = test: MTT proliferation assay, glioblastoma; assay type: cell-based; conditions: Homo sapiens, U-87 MG, 72 h, read-out: Antiproliferative activity GI50 U87
Procedure: (§4) All three GBM cell lines used in this example, namely U87, U251 and T98G, were cultured in Eagle's Minimum Essential Medium (EMEM) with 10% fetal bovine serum in 75 cm^2 flasks at 37° C. and 5% CO2. All cell lines were confirmed to be mycoplasma-free prior to any experiment setup.
as §1

T98G = test: MTT proliferation assay, glioblastoma; assay type: cell-based; conditions: Homo sapiens, 72 h, read-out: Antiproliferative activity GI50 T98G
Procedure: as §4, §1

U251 = test: MTT proliferation assay, glioblastoma; assay type: cell-based; conditions: Homo sapiens, U-251, 72 h, read-out: Antiproliferative activity GI50 U251
Procedure: as §4, §1

M229 = test: MTT proliferation assay, melanoma; assay type: cell-based; conditions: 72 h, read-out: Antiproliferative activity GI50 M229
Excerpt: as §1

H460 = test: MTT proliferation assay, lung; assay type: cell-based; conditions: Homo sapiens, NCI-H460, 72 h, read-out: Antiproliferative activity GI50 H460
Excerpt: as §1

| SMILES | GI50 (MV4-11) [nM] | pKi (CDK6/D3) | pKi (CDK2/A) | pKi (CDK9/T1) | pKi (CDK4/D1) | pKi (CDK1/B) | pKi (CDK7/H) | GI50 (MB453) [nM] | further results |
| --- | --- | --- | --- | --- | --- | --- | --- | --- | --- |
| CCN1CCN(c2ccc(Nc3nccc(-c4sc(NC5CCCC5)nc4C)n3)nc2)CC1 [Compound 4, N-cyclopentyl-5-(2-((5-(4-ethylpiperazin-1-yl)pyridin-2-yl)amino)pyrimidin-4-yl)-4-methylthiazol-2-amine] | 10 | 7.96 | 6.45 | 6.85 | 8.70 | < 6.00 |  | 290 |  |
| CCN1CCN(Cc2ccc(Nc3nccc(-c4sc(NC5CCCC5)nc4C)n3)nc2)CC1 [Compound 6, N-cyclopentyl-5-(2-((5-((4-ethylpiperazin-1-yl)methyl)pyridin-2-yl)amino)pyrimidin-4-yl)-4-methylthiazol-2-amine] | 20 | 8.05 | 6.38 | < 6.00 | 8.22 | < 6.00 | 6.20 | 70 | GI50 (Colo205): 4380 nM |
| CCN1CCN(Cc2ccc(Nc3ncc(F)c(-c4sc(NC5CCCC5)nc4C)n3)nc2)CC1 [Compound 2, N-cyclopentyl-5-(2-((5-((4-ethylpiperazin-1-yl)methyl)pyridin-2-yl)amino)-5-fluoropyrimidin-4-yl)-4-methylthiazol-2-amine] | 10 | 8.52 | 6.21 | < 6.00 | 9.70 | < 6.00 |  | 620 | toxicity (U87 xenografted mice): without any overt toxicity; anti-tumour efficacy (U87 xenografted mice; p<0.001 vs vehicle): significant anti-tumour efficacy both as a single agent and in combination with TMZ; inhibition in tumour growth (TGI) (U87 GBM cells [1]; day 21, oral once daily for 21 days, vs vehicle, p<0.001): 81.4%; increase in life span ratio (ILS) (U87 GBM cells [1]; vs vehicle control, ILS=(DaysT−DaysC)/DaysC): 154.8%; T/C (U87 GBM cells [2]; day 21, oral daily for 21 days, vs vehicle, p<0.001): 6%; tumour growth compared to vehicle treatment (U87 GBM cells [2]; oral daily for 21 days): markedly reduced tumour growth; toxicity (U87 GBM cells [2]; oral daily for 21 days, observed daily for signs of toxicity and weight loss): without any overt toxicity; GI50 (Colo205): 1550 nM; GI50 (LNCap): 280 nM; GI50 (A2780): 40 nM; GI50 (PANC1): 1210 nM; GI50 (U87): 2170 nM; GI50 (T98G): 4180 nM; GI50 (U251): 5090 nM; GI50 (M229): 830 nM; GI50 (H460): 410 nM |
| CNc1nc(C)c(-c2nc(Nc3ccc(N4CCN(C(C)=O)CC4)cn3)ncc2C#N)s1 [Compound 5, 2-((5-(4-acetylpiperazin-1-yl)pyridin-2-yl)amino)-4-(4-methyl-2-(methylamino)thiazol-5-yl)pyrimidine-5-carbonitrile] | 170 | 7.52 | < 6.00 | < 6.00 | 8.40 | < 6.00 | < 6.00 | 810 |  |
| Cc1nc(NC2CCCC2)sc1-c1ccnc(Nc2ccc(N3CCNCC3)cn2)n1 [Compound 3, N-cyclopentyl-4-methyl-5-(2-((5-(piperazin-1-yl)pyridin-2-yl)amino)pyrimidin-4-yl)thiazol-2-amine] | 20 | 7.47 | < 6.00 | 6.66 | 9.00 | < 6.00 | < 6.00 | 70 |  |

Second part, led by results:

| GI50 (MV4-11) [nM] | pKi (CDK6/D3) | pKi (CDK2/A) | pKi (CDK9/T1) | pKi (CDK4/D1) | pKi (CDK1/B) | pKi (CDK7/H) | SMILES | GI50 (MB453) [nM] | further results |
| --- | --- | --- | --- | --- | --- | --- | --- | --- | --- |
| 80 | 7.49 | 6.69 | < 6.00 | 8.52 | < 6.00 | < 6.00 | CNc1nc(C)c(-c2nc(Nc3ccc(N4CCC(N)CC4)cn3)ncc2F)s1 [Compound 7, 5-(2-((5-(4-aminopiperidin-1-yl)pyridin-2-yl)amino)-5-fluoropyrimidin-4-yl)-N,4-dimethylthiazol-2-amine] | 360 |  |
| 30 | 8.10 | 6.56 | 6.29 | 9.00 | < 6.00 | 6.55 | Cc1nc(NC2CCCC2)sc1-c1ccnc(Nc2ccc(N3CCC(N)CC3)cn2)n1 [Compound 8, 5-(2-((5-(4-aminopiperidin-1-yl)pyridin-2-yl)amino)pyrimidin-4-yl)-N-cyclopentyl-4-methylthiazol-2-amine] | 100 |  |
| 290 | 7.70 | 6.98 | < 6.00 | 8.22 | < 6.00 | < 6.00 | Cc1nc(NC2CCCC2)sc1-c1nc(Nc2ccc(N3CCOCC3)cn2)ncc1F [Compound 9, N-cyclopentyl-5-(5-fluoro-2-((5-morpholinopyridin-2-yl)amino)pyrimidin-4-yl)-4-methylthiazol-2-amine] | 1450 |  |
